We go through 19 molecules from patent US12264156B2, “Compounds and pharmaceutical compositions thereof for the treatment of diseases” (GALAPAGOS NV, priority 2018, dated 2025).

Usually IC50 stands for the concentration that inhibits the measured activity by half. A low value points to inhibition by little substance.

Assay type in all cases: biochemical
Common to all, as to settings: ADP-Glo SIK kinase assay
Background: In ADP-Glo the light output rises with the ADP produced.

The target in one assay is T1, SIK3 (Homo sapiens, UniProt Q9Y2K2).
T1 construct: purchased SignalChem S12-11G-100
Briefly: ADP-Glo kinase assay, SIK3. Summed up:
(§1)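 Enzyme–substrate mix was started with ATP and incubated 120 min at RT. ADP formed was quantified by ADP-Glo: 40 min ATP depletion, then 30 min detection reagent converting ADP to ATP for luciferase luminescence, which rises with kinase activity. Controls: 1% DMSO and 10 μM staurosporine (final).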

The target in the next assay is T2, SIK2 (Homo sapiens, UniProt Q9H0K1).
T2 construct: purchased ThermoFisher Scientific PV4792
As to the kind of experiment: ADP-Glo kinase assay, SIK2. The method, boiled down:
as §1

The next assay deals with T3, SIK1 (Homo sapiens, UniProt P57059).
T3 construct: purchased Carna Biosciences 02-131
As to the kind of experiment: ADP-Glo kinase assay, SIK1. The method, boiled down:
as §1

SMILES strings stand for the structures. Bounds are passed on as bounds.

T2 sequence (Q9H0K1 whole entry): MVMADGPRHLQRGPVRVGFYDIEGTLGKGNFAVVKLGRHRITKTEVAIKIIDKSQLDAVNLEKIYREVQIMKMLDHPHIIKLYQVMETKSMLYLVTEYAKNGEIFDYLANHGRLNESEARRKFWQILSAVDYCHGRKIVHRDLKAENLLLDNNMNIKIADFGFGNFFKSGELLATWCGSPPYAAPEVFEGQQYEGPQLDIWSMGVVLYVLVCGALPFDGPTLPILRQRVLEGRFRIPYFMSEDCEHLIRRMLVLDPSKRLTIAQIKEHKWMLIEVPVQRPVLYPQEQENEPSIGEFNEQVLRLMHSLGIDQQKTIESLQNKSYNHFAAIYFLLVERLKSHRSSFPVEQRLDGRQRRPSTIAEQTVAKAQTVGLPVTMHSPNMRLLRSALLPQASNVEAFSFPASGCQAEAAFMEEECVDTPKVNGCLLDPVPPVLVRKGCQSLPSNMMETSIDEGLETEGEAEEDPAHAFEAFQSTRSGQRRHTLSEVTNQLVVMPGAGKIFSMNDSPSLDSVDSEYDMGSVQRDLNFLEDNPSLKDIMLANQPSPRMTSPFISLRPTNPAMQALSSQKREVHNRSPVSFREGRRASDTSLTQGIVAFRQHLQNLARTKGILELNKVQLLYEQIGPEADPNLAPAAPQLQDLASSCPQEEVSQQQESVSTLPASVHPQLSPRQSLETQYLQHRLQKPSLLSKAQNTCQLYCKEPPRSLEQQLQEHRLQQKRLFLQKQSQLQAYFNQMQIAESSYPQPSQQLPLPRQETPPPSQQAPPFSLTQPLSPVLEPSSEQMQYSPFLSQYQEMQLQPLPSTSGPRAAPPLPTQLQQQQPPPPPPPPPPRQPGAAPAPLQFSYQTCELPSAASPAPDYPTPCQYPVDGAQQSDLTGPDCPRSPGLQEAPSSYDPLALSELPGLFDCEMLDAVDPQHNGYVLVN
T3 sequence (P57059 whole entry): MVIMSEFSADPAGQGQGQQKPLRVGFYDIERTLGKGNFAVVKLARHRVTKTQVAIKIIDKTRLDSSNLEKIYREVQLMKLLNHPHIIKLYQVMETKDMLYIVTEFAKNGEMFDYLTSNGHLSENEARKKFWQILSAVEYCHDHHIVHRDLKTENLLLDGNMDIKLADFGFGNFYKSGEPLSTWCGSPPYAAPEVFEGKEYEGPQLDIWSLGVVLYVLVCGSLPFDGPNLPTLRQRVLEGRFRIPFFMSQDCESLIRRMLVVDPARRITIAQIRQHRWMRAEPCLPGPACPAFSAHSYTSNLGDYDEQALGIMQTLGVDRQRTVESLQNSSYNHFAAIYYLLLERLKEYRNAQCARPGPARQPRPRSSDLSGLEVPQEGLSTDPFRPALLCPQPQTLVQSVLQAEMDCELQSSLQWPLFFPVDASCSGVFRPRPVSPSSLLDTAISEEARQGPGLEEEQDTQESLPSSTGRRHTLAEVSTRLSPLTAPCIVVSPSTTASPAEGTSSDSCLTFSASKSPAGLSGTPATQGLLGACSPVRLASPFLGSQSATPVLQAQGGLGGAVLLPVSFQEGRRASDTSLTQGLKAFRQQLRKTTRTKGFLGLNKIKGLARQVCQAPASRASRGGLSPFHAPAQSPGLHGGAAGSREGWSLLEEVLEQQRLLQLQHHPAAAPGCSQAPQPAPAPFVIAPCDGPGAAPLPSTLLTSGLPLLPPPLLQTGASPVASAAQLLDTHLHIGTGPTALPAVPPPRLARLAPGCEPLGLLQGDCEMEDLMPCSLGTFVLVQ
T1 sequence (Q9Y2K2 whole entry): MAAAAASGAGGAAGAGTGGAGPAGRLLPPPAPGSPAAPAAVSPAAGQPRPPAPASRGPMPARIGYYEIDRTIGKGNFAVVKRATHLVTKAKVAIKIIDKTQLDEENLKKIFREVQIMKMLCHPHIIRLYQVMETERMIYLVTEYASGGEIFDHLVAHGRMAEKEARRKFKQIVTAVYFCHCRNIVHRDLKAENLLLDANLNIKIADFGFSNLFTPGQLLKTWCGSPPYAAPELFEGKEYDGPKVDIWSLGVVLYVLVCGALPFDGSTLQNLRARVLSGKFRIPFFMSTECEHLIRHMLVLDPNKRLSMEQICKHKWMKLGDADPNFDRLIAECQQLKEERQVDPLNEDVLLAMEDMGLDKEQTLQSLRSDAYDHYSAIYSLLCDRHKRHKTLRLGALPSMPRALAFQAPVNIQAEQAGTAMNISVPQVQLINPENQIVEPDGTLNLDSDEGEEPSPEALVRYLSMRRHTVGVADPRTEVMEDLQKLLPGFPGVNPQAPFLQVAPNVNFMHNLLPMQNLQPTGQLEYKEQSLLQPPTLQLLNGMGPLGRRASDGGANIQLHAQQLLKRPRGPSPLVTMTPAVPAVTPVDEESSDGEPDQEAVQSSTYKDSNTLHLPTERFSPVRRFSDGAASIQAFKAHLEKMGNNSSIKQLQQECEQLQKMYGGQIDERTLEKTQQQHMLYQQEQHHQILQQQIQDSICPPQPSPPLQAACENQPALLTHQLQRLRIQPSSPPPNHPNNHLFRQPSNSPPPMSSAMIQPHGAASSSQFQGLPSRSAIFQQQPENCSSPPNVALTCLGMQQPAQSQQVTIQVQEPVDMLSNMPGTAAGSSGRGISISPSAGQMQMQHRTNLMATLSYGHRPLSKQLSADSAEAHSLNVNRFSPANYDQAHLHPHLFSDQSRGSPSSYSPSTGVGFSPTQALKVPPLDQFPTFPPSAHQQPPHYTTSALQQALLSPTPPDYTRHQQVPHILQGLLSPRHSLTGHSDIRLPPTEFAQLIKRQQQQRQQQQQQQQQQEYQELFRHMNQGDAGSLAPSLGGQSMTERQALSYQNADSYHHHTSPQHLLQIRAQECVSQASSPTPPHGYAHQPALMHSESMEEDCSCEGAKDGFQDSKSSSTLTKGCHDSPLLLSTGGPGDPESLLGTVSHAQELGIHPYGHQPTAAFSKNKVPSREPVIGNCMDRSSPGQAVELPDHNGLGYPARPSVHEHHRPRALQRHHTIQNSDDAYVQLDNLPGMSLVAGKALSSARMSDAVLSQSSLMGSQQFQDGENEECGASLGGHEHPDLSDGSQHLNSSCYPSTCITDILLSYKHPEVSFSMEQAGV

Turning to `COc1cc(-c2cnc3cc(OCC(O)CN4CCOCC4)ccn23)cc(OC(F)F)c1C(=O)NC1CC1` (single isomer, unassigned) [Cpd 386, N-cyclopropyl-2-(difluoromethoxy)-4-[7-(2-hydroxy-3-morpholino-propoxy)imidazo[1,2-a]pyridin-3-yl]-6-methoxy-benzamide], the IC50 against SIK3 is 0.01 to 10 nM; on SIK2, 0.01 to 10 nM; against SIK1, 10 to 100 nM.
For `COc1cc(-c2cnc3cc(OCC(O)CN4CCOCC4)ccn23)cc(OC(F)F)c1C(=O)NC1CC1` (single isomer, unassigned) [Cpd 387, N-cyclopropyl-2-(difluoromethoxy)-4-[7-(2-hydroxy-3-morpholino-propoxy)imidazo[1,2-a]pyridin-3-yl]-6-methoxy-benzamide], the IC50 against SIK3 lay in the range of 0.01 to 10 nM; against SIK2, 0.01 to 10 nM; at SIK1, 10 to 100 nM.
As for `COc1cc(-c2cnc3cc(OC(C)(C)CO)ccn23)cc(OC(F)F)c1C(=O)NC1CC1` [Cpd 209, N-cyclopropyl-2-(difluoromethoxy)-4-[7-(2-hydroxy-1,1-dimethyl-ethoxy)imidazo[1,2-a]pyridin-3-yl]-6-methoxy-benzamide], the IC50 was 10 to 100 nM against SIK3, over 500 nM on SIK2 and over 500 nM against SIK1.
As to `COc1cc(-c2cnc3cc(OCCN4CC(F)(F)C4)ccn23)cc2c1C(=O)N(CC(F)(F)F)CC2` [Cpd 244, 6-[7-[2-(3,3-difluoroazetidin-1-yl)ethoxy]imidazo[1,2-a]pyridin-3-yl]-8-methoxy-2-(2,2,2-trifluoroethyl)-3,4-dihydroisoquinolin-1-one], the IC50 was 0.01 to 10 nM at SIK3, 0.01 to 10 nM at SIK2 and 100 to 500 nM at SIK1.
`COc1cc(-c2cnc3cc(OCCCN4CCC5(CC4)CNC(=O)O5)ccn23)cc(OC(F)F)c1C(=O)NC1CC1` [Cpd 324, N-cyclopropyl-2-(difluoromethoxy)-6-methoxy-4-[7-[3-(2-oxo-1-oxa-3,8-diazaspiro[4.5]decan-8-yl)propoxy]imidazo[1,2-a]pyridin-3-yl]benzamide]: the IC50 at SIK3 fell in the range of 0.01 to 10 nM; at SIK2, 0.01 to 10 nM; against SIK1, 10 to 100 nM.
Consider `COc1cc(-c2cnc3cc(OCCCN4CCS(=O)(=O)CC4)ccn23)cc(OC(F)F)c1C(=O)NC1CC1` [Cpd 331, N-cyclopropyl-2-(difluoromethoxy)-4-[7-[3-(1,1-dioxo-1,4-thiazinan-4-yl)propoxy]imidazo[1,2-a]pyridin-3-yl]-6-methoxy-benzamide], for which the IC50 against SIK3 lay within 0.01 to 10 nM; against SIK2 it was 0.01 to 10 nM; on SIK1, 10 to 100 nM.
`CCOC(=O)C1(F)CCN(CCCOc2ccn3c(-c4cc(OC)c(C(=O)NC5CC5)c(OC(F)F)c4)cnc3c2)CC1` [Cpd 363, ethyl 1-[3-[3-[4-(cyclopropylcarbamoyl)-3-(difluoromethoxy)-5-methoxy-phenyl]imidazo[1,2-a]pyridin-7-yl]oxypropyl]-4-fluoro-piperidine-4-carboxylate]: the figures for the IC50 at SIK3, against SIK2 and at SIK1 were 0.01 to 10 nM, 0.01 to 10 nM and 10 to 100 nM, respectively.
For the molecule `COc1cc(-c2cnc3cc(OCCN4CCN(C)CC4)ccn23)cc(OC(F)F)c1C(=O)NC1CC1` [compound 9, N-cyclopropyl-2-(difluoromethoxy)-6-methoxy-4-[7-[2-(4-methylpiperazin-1-yl)ethoxy]imidazo[1,2-a]pyridin-3-yl]benzamide], the IC50 on SIK3 was 0.01 to 10 nM; against SIK2, 0.01 to 10 nM; against SIK1, 10 to 100 nM.
With `COc1cc(-c2cnc3cc(OCCN4C5CCC4COC5)ccn23)cc(OC(F)F)c1C(=O)NC1CC1` [compound 193, N-cyclopropyl-2-(difluoromethoxy)-6-methoxy-4-[7-[2-(3-oxa-8-azabicyclo [3.2.1]octan-8-yl)ethoxy]imidazo[1,2-a]pyridin-3-yl]benzamide], the IC50 on SIK3 was 0.01 to 10 nM; against SIK2 it was 0.01 to 10 nM; against SIK1 it was 10 to 100 nM.
`COc1cc(-c2cnc3cc(OC[C@H]4COCCO4)ccn23)cc2c1C(=O)NCC2` [compound 242, 6-[7-[[(2R)-1,4-dioxan-2-yl]methoxy]imidazo[1,2-a]pyridin-3-yl]-8-methoxy-3,4-dihydro-2H-isoquinolin-1-one]: the figures for the IC50 on SIK3, on SIK2 and on SIK1 were 0.01 to 10 nM, 0.01 to 10 nM and 10 to 100 nM, respectively.
Regarding `COc1cc(-c2cnc3cc(OCC4(F)CN(C(=O)OC(C)(C)C)C4)ccn23)cc2c1C(=O)N(CC(F)(F)F)CC2` [compound 248, tert-butyl 3-fluoro-3-[[3-[8-methoxy-1-oxo-2-(2,2,2-trifluoroethyl)-3,4-dihydroisoquinolin-6-yl]imidazo[1,2-a]pyridin-7-yl]oxymethyl]azetidine-1-carboxylate], the concentration for half-maximal inhibition (IC50) lay in the range of 0.01 to 10 nM at SIK3, 0.01 to 10 nM against SIK2 and 100 to 500 nM against SIK1.
With `COc1cc(-c2cnc3cc(OCCN4CCOC[C@H]4C)ccn23)cc2c1C(=O)N(CC(F)(F)F)CC2` [compound 259, 8-methoxy-6-[7-[2-[(3R)-3-methylmorpholin-4-yl]ethoxy]imidazo[1,2-a]pyridin-3-yl]-2-(2,2,2-trifluoroethyl)-3,4-dihydroisoquinolin-1-one], the figures for the IC50 against SIK3, at SIK2 and on SIK1 were 10 to 100 nM, 10 to 100 nM and 100 to 500 nM, respectively.
For `COc1cc(-c2cnc3cc(OCCCN4CC5(COC5)C4)ccn23)cc(OC(F)F)c1C(=O)NC1CC1` [compound 273, N-cyclopropyl-2-(difluoromethoxy)-6-methoxy-4-[7-[3-(2-oxa-6-azaspiro[3.3]heptan-6-yl)propoxy]imidazo[1,2-a]pyridin-3-yl]benzamide], the IC50 was in the range of 0.01 to 10 nM at SIK3, 0.01 to 10 nM at SIK2 and 10 to 100 nM on SIK1.
On to `COc1cc(-c2cnc3cc(OCCCN4CCC4)ccn23)cc(OC(F)F)c1C(=O)NC1CC1` [compound 274, 4-[7-[3-(azetidin-1-yl)propoxy]imidazo[1,2-a]pyridin-3-yl]-N-cyclopropyl-2-(difluoromethoxy)-6-methoxy-benzamide], for which the 50% inhibitory concentration (IC50) against SIK3, against SIK2 and at SIK1 was 0.01 to 10 nM throughout.
Take `COc1cc(-c2cnc3cc(OCCCN4CCCC4)ccn23)cc(OC(F)F)c1C(=O)NC1CC1` [compound 275, N-cyclopropyl-2-(difluoromethoxy)-6-methoxy-4-[7-(3-pyrrolidin-1-ylpropoxy)imidazo[1,2-a]pyridin-3-yl]benzamide]: the IC50 against SIK3 fell in the range of 0.01 to 10 nM; against SIK2, 0.01 to 10 nM; against SIK1, 10 to 100 nM.
On to `COc1cc(-c2cnc3cc(OCCN4CCN(C(C)C)CC4)ccn23)cc(OC(F)F)c1C(=O)NC1CC1` [compound 276, N-cyclopropyl-2-(difluoromethoxy)-4-[7-[2-(4-isopropylpiperazin-1-yl)ethoxy]imidazo[1,2-a]pyridin-3-yl]-6-methoxy-benzamide], for which the figures for the IC50 at SIK3, at SIK2 and at SIK1 were 0.01 to 10 nM, 0.01 to 10 nM and 10 to 100 nM, respectively.
As to `COc1cc(-c2cnc3cc(OCCOCCN4CCCCC4)ccn23)cc(OC(F)F)c1C(=O)NC1CC1` [compound 305], the half-inhibitory concentration (IC50) at SIK3 fell in the range of 0.01 to 10 nM; on SIK2 it was 0.01 to 10 nM; on SIK1 it was 10 to 100 nM.
On to `COc1cc(-c2cnc3cc(OCCCN4CCC5(CC4)CN(C)C(=O)O5)ccn23)cc(OC(F)F)c1C(=O)NC1CC1` [compound 325, N-cyclopropyl-2-(difluoromethoxy)-6-methoxy-4-[7-[3-(3-methyl-2-oxo-1-oxa-3,8-diazaspiro[4.5]decan-8-yl)propoxy]imidazo[1,2-a]pyridin-3-yl]benzamide], for which the IC50 against SIK3 fell in the range of 0.01 to 10 nM; against SIK2, 0.01 to 10 nM; against SIK1 it was 10 to 100 nM.
In the case of `CCOC(=O)C1(F)CCN(CCOc2ccn3c(-c4cc(OC)c(C(=O)NC5CC5)c(OC(F)F)c4)cnc3c2)CC1` [compound 390, ethyl 1-[2-[3-[4-(cyclopropylcarbamoyl)-3-(difluoromethoxy)-5-methoxy-phenyl]imidazo[1,2-a]pyridin-7-yl]oxyethyl]-4-fluoro-piperidine-4-carboxylate], the IC50 against SIK3 lay in the range of 0.01 to 10 nM; on SIK2, 0.01 to 10 nM; at SIK1 it was 10 to 100 nM.
